According to patent US5324725A, “7-fused 2-(piperazinoalkyl) indole derivatives, intermediates and compositions thereof” (Kali-Chemie Pharma GmbH, priority 1991, dated 1994):

system: P.A.F.-induced aggregation of platelets from rabbit blood; experiment: Anti-P.A.F. effect in vitro: inhibition of P.A.F.-induced platelet aggregation; format: cell-based, rabbit (New Zealand hybrids); details: Oryctolagus cuniculus, Platelet, test substance concentration 10^-5 mol/l
Procedure, shortened: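 Washed, aspirin-treated rabbit platelets (4×10^9/ml stock suspension) in modified Tyrode buffer, pH 7.4, preincubated 90 s with test compound at 10^-5 mol/l final, then challenged with P.A.F. Aggregation followed 4–5 min in an aggregometer. Inhibition expressed in % relative to P.A.F.-only (100%) and platelet-only (0%) controls.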

Row | SMILES | inhibition at 10 µM
1 | Cc1ccnc(N2CCN(CCc3c(C)n4c5c(cccc35)CCC4c3ccccc3)CC2)c1 (centres unmarked) [Example 3, 5,6-dihydro-2-methyl-4-phenyl-1-{2-[4-(4-methylpyridine-2-yl)piperazin-1-yl]-ethyl}-4H-pyrrolo[3,2,1-ij]quinoline] | 100%
2 | CCc1c(C(O)CN2CCN(c3cc(C)ccn3)CC2)c2cccc3c2n1CCC3 (centres unmarked) [Example 14, 2-Ethyl-5,6-dihydro-1-{2-[4-(4-methylpyridin-2-yl)piperazin-1-yl]-1-hydroxyethyl}-4H-pyrrolo[3,2,1-ij]quinoline] | 86%
3 | Cc1ccnc(N2CCN(CCc3c(C)n4c5c(c(Cl)cc(Cl)c35)OCC4)CC2)c1 [Example 79] | 71%
4 | Cc1ccnc(N2CCN(CCc3c(C)n4c5c(cccc35)CC4C)CC2)c1 (centres unmarked) [Example 33] | 71%
5 | Cc1ccnc(N2CCN(CCc3c(C)n4c5c(c(C(O)C(C)C)ccc35)SCC4)CC2)c1 (centres unmarked) [Example 89] | 100%
6 | CCCCCCCC1CCc2cccc3c(CCN4CCN(c5cc(C)ccn5)CC4)c(C)n1c23 (centres unmarked) [Example 4, 4-n-heptyl-5,6-dihydro-2-methyl-1-{2-[4-(4-methylpyridin-2-yl)piperazin-1-yl]ethyl}-4H-pyrrolo[3,2,1-ij]-quinoline] | 58%
7 | Cc1ccnc(N2CCN(CCc3cn4c5c(cccc35)CCC4)CC2)c1 [Example 13, 5,6-Dihydro-1-{2-[4-(4-methylpyridin-2-yl)piperazin-1-yl]ethyl}-4H-pyrrolo[3,2,1-ij]quinoline] | 93%
8 | Cc1ccnc(N2CCN(CCc3c(C)n4c5c(cc(NC(=O)c6ccccc6)cc35)CCC4)CC2)c1 [Example 25, 8-Benzoylamino-5,6-dihydro-2-methyl-1-{2-[4-(4-methylpyridin-2-yl)piperazin-1-yl]-ethyl}-4H-pyrrolo[3,2,1-ij]quinoline] | 43%
9 | CCc1c(CCN2CCN(c3cc(C)ccn3)CC2)c2cccc3c2n1CCC3 [Example 15, 2-Ethyl-5,6-dihydro-1-{2-[4-(4-methylpyridin-2-yl)piperazin-1-yl]ethyl}-4H-pyrrolo[3,2,1-ij]quinoline] | 85%
10 | Cc1ccnc(N2CCN(CCc3c(-c4ccc(F)cc4)n4c5c(cccc35)CCC4)CC2)c1 [Example 47] | 95%
11 | Cc1ccnc(N2CCN(CCc3c(-c4ccc(OCCCCO)cc4)n4c5c(cccc35)CCC4)CC2)c1 [Example 12, 2-[4-(4-Hydroxybutyloxy)-phenyl]-1-{2-[4-(4-methylpyridin-2-yl)piperazin-1-yl]ethyl}-5,6-dihydro-4H-pyrrolo[3,2,1-ij]quinoline] | 100%
12 | C=CCCC1CCc2cccc3c(CCN4CCN(c5cc(C)ccn5)CC4)c(C)n1c23 (centres unmarked) [Example 62] | 70%
13 | Cc1ccnc(N2CCN(CCc3c(C)n4c5c(cc(C(O)C(C)C)cc35)CCC4)CC2)c1 (centres unmarked) [Example 19, 5,6-Dihydro-8-(1-hydroxy-2-methylpropyl)-2-methyl-1-{2-[4-(4-methylpyridin-2-yl)piperazin-1-yl]ethyl}-4H-pyrrolo-[3,2,1-ij]quinoline] | 83%
14 | CC(C)=Cc1cc2c3c(c1)c(CCN1CCN(c4cc(C)ccn4)CC1)c(C)n3CCC2 [Example 26, 5,6-Dihydro-2-methyl-8-(2-methylprop-1-enyl)-1-{2-[4-(4-methylpyridin-2-yl)piperazin-1-yl]ethyl}-4H-pyrrolo[3,2,1-ij]quinoline] | 89%
15 | Cc1ccnc(N2CCN(CCc3c(C)n4c5c(cc([N+](=O)[O-])cc35)CCC4)CC2)c1 [Example 10, 2-Methyl-8-nitro-1-{2-[4-(4-methylpyridin-2-yl)-piperazin-1-yl]ethyl}-5,6-dihydro-4H-pyrrolo[3,2,1-ij]quinoline] | 94%
16 | CCCCC1CCc2cccc3c(CCN4CCN(c5cc(C)ccn5)CC4)c(C)n1c23 (centres unmarked) [Example 73, 4-n-butyl-5,6-dihydro-2-methyl-1-{2-[4-(4-methylpyridin-2-yl)piperazin-1-yl]ethyl}-4H-pyrrolo[3,2,1-ij]quinoline] | 99%
17 | Cc1ccnc(N2CCN(CCc3c(C)n4c5c(cccc35)SCC4)CC2)c1 [Example 11, 5-Methyl-6-{2-[4-(4-methylpyridin-2-yl)piperazin-1-yl]ethyl}-2,3-dihydro-pyrrolo[1,2,3-de]-1,4-benzo-thiazine] | 89%
18 | Cc1ccnc(N2CCN(CCc3c(C)n4c5c(cc(Cc6ccccc6)cc35)CCC4)CC2)c1 [Example 77] | 100%
19 | COc1ccc(C2CCc3cccc4c(CCN5CCN(c6cc(C)ccn6)CC5)c(C)n2c34)cc1 (centres unmarked) [Example 59] | 89%
20 | Cc1ccnc(N2CCN(CCc3c(C)n4c5c(cc(Br)cc35)CCC4)CC2)c1 [Example 9, 8-Bromo-2-methyl-1-{2-[4-(4-methylpyridin-2-yl)piperazin-1-yl]ethyl}-5,6-dihydro-4H-pyrrolo[3,2,1-ij]quinoline] | 73%
21 | CCCCC1CCc2cc(C(=O)C(C)C)cc3c(CCN4CCN(c5cc(C)ccn5)CC4)c(C)n1c23 (centres unmarked) [Example 23, 4-n-Butyl-5,6-dihydro-8-(2-methyl-1-oxopropyl)-2-methyl-1-{2-[4-(4-methylpyridin-2-yl)piperazin-1-yl]ethyl}-4H-pyrrolo[3,2,1-ij]quinoline] | 100%
22 | Cc1ccnc(N2CCN(CCc3c(C)n4c5c(ccc(C(O)C(C)C)c35)SCC4)CC2)c1 (centres unmarked) [Example 90] | 64%
23 | Cc1ccnc(N2CCN(CCc3c(C)n4c5c(cc(CC(C)C)cc35)CCC4)CC2)c1 [Example 21, 5,6-Dihydro-2-methyl-8-(2-methylpropyl)-1-{2-[4-(4-methylpyridin-2-yl)piperazin-1-yl]ethyl}-4H-pyrrolo[3,2,1-ij]quinoline] | 91%
24 | Cc1ccnc(N2CCN(CCc3c(C)n4c5c(cccc35)C(C)CC4)CC2)c1 (centres unmarked) [Example 57] | 86%

Row | SMILES | inhibition at 10 µM
25 | Cc1ccnc(N2CCN(CCc3c(C)n4c5c(cc(N)cc35)CCC4)CC2)c1 [Example 20, 8-Amino-5,6-dihydro-2-methyl-1-{2-[4-(4-methylpyridin-2-yl)piperazin-1-yl]ethyl}-4H-pyrrolo[3,2,1-ij]quinoline] | 17%
26 | CC(=O)c1cc2c3c(c1)c(CCN1CCN(c4cc(C)ccn4)CC1)c(C)n3CCC2 [Example 67] | 76%
27 | Cc1ccnc(N2CCN(CCc3c(C)n4c5c(cc(NC(=O)C(C)C)cc35)CCC4)CC2)c1 [Example 60] | 44%
28 | COc1ccc(-c2c(CCN3CCN(c4cc(C)ccn4)CC3)c3cccc4c3n2CCC4)cc1 [Example 7, 2-(4-methoxy-phenyl)-1-{2-[4-(4-methylpyridin-2-yl)piperazin-1-yl]ethyl}-5,6-dihydro-4H-pyrrolo[3,2,1-ij]quinoline] | 100%
29 | Cc1cc2c3c(c1)c(CCN1CCC(C(=O)c4ccc(F)cc4)CC1)c(C)n3CCC2 [Example 55] | 40%
30 | CNc1cc2c3c(c1)c(CCN1CCN(c4cc(C)ccn4)CC1)c(C)n3CCC2 [Example 80] | 72%
31 | Cc1ccnc(N2CCN(CCc3c(C)n4c5c(cccc35)CCC4C3CCCCC3)CC2)c1 (centres unmarked) [Example 87] | 100%
32 | CC(=O)Oc1cc2c3c(c1)c(CCN1CCN(c4cc(C)ccn4)CC1)c(C)n3CCC2 [Example 24, 8-Acetoxy-5,6-dihydro-2-methyl-1-{2-[4-(4-methyl-pyridin-2-yl)piperazin-1-yl]ethyl}-4H-pyrrolo[3,2,1-ij]quinoline] | 80%
33 | Cc1ccnc(N2CCN(CCc3c(-c4ccc(O)cc4)n4c5c(cccc35)CCC4)CC2)c1 [Example 8, 2-(4-hydroxyphenyl)-1-{2-[4-(4-methylpyridin-2-yl)piperazin-1-yl]ethyl}-5,6-dihydro-4H-pyrrolo[3,2,1-ij]quinoline] | 100%
34 | Cc1ccnc(N2CCN(CCc3c(C)n4c5c(cc(C(=O)c6ccccc6)cc35)CCC4)CC2)c1 [Example 66] | 100%
35 | Cc1ccnc(N2CCN(CCc3c(C)n4c5c(ccc(C(=O)C(C)C)c35)SCC4)CC2)c1 [Example 91] | 58%
36 | CCCCC1CCc2cc(OC)cc3c(CCN4CCN(c5cc(C)ccn5)CC4)c(C)n1c23 (centres unmarked) [Example 63] | 98%
37 | COc1ccc(C2CCc3cc(OC)cc4c(CCN5CCN(c6cc(C)ccn6)CC5)c(C)n2c34)cc1 (centres unmarked) [Example 65] | 100%
38 | Cc1ccnc(N2CCN(CCc3c(CO)n4c5c(cccc35)CCC4)CC2)c1 [Example 16, 5,6-dihydro-2-hydroxymethyl-1-{2-[4-(4-methylpyridin-2-yl)piperazin-1-yl]ethyl}-4H-pyrrolo[3,2,1-ij]quinoline] | 73%
39 | Cc1ccnc(N2CCN(CCc3c(C)n4c5c(cccc35)CCC4c3ccc(O)cc3)CC2)c1 (centres unmarked) [Example 61] | 83%
40 | Cc1ccnc(N2CCN(CC(O)c3c(C4CCCCC4)n4c5c(cccc35)CCC4)CC2)c1 (centres unmarked) [Example 85] | 100%
41 | Cc1ccnc(N2CCN(CCc3c(C)n4c5c(cc(C(=O)C6CCCCC6)cc35)CCC4)CC2)c1 [Example 83] | 100%
42 | Cc1ccnc(N2CCN(CCc3c(C)n4c5c(cc(C(=O)C(C)C)cc35)CCC4)CC2)c1 [Example 27, 5,6-dihydro-2-methyl-8-(2-methyl-1-oxopropyl)-1-{2-[4-(4-methylpyridin-2-yl)piperazin-1-yl]ethyl}-4H-pyrrolo-[3,2,1-ij]quinoline] | 83%
43 | Cc1c(CCN2CCN(c3ccccn3)CC2)c2cccc3c2n1CCC3 [Example 37] | 28%
44 | Cc1ccnc(N2CCN(CCc3c(C)n4c5c(cc(C)cc35)CCC4)CC2)c1 [Example 54] | 75%
45 | Cc1ccnc(N2CCN(CCc3c(C)n4c5c(ccc(Cl)c35)OCC4)CC2)c1 [Example 35] | 56%
46 | CCCCC1CCc2cc(O)cc3c(CCN4CCN(c5cc(C)ccn5)CC4)c(C)n1c23 (centres unmarked) [Example 76] | 99%
47 | Cc1ccnc(N2CCN(CCc3c(C)n4c5c(cccc35)CCC4)CC2)c1 [Example 1, 5,6-Dihydro-2-methyl-1-{2-[4-(4-methylpyridin-2-yl)piperazin-1-yl]ethyl}-4H-pyrrolo[3,2,1-ij]quinoline] | 97%
